# Test results as given in patent US7563781B2, “Triazolopyrimidine derivatives” (Janssen Pharmaceutica NV, priority 2006, dated 2009).
# Tests used:
# [1] = target: T1, Focal Adhesion Kinase (full-length Flag-tagged human FAK) (Homo sapiens, UniProt Q05397); assay: in vitro FAK ELISA kinase assay; type: biochemical; details: compound 10 uM; ATP 2 uM; read-out: FAK % Inhib ave: 10 uM
# T1 construct: a purified recombinant full-length Flag-tagged human FAK protein; Flag; made in house; host or cells: baculovirus infected insect cells
# Method: Compound effects on the tyrosine kinase activity of Focal Adhesion Kinase were assessed with an in vitro FAK ELISA kinase assay. This assay measures the incorporation of phosphate from ATP into a FAK substrate protein using an antibody specific for phospho-tyrosine.
# 500 ng of FAKsubstrate, a purified recombinant fusion protein of GST and a 73 amino acid region surrounding the Tyr397 human FAK autophosphorylation site, was coated in a high-protein binding polystyrene 96 well plate overnight in a buffer containing 50 mM Hepes, pH 7.5, 150 mM NaCl, 0.1 mM Na-oVO4, 0.1 mM NaF and 1 protease inhibitor tablet/10 mL (Complete Mini-EDTA-free, Roche). The next day this solution was removed and the wells were incubated with 0.2% BSA in 50 mM Hepes, pH 7.5, 150 mM NaCl, 0.2 mM PMSF for 1 hour at 30° C. to block unoccupied protein binding sites. The wells were then washed with 50 mM Hepes, pH 7.5, 150 mM NaCl, 0.1% Tween 20. The kinase reaction was performed with 25 ng/well of FAK enzyme (a purified recombinant full-length Flag-tagged human FAK protein made in baculovirus infected insect cells) in 0.1 mL of a buffer containing 25 mM Hepes, pH 7.5, 5 mM MgCl2, 0.5 mM MnCl2, 10 uM NaoVO4, 0.2 mM PMSF. Compounds were added from 30% DMSO stock solutions for a screening concentration of 10 uM or IC50 determinations from 50 uM in half-log dilutions. The reaction is initiated with addition of ATP to a final concentration of 2 uM and incubated at 30° C. for 1 hour. Following the kinase reaction step, the wells were washed and incubated with 50 ng of Horseradish Peroxidase conjugated anti-phosphotyrosine antibody (PT-66 HRP, Sigma) in 0.1 mL wash buffer for 1 hour at 30° C. Wells were then washed and 0.1 mL HRP substrate, Tetra-methyl Benzidine (Sigma) was added and the color reaction allowed to proceed for 2-3 minutes followed by the addition of 0.1 mL of 1N H2SO4 to stop the HRP reaction. Percent inhibition of FAK kinase activity was calculated by comparing compound containing wells to wells treated with diluent only. Background was subtracted from all wells and was defined as the activity of FAK using 500 ng/well of BSA as a substrate. IC50 values were obtained using Prism data analysis software.
# [2] = target: T2, CAK complex (human Cdk7, human Cyclin H, MAT-1) (Homo sapiens, UniProt P50613); assay: in vitro time-resolved-fluorescence assay for the CAK kinase activity; type: biochemical; details: compound 20 uM; read-out: CAK % inhib; 20 uM
# T2 construct: made in house; host or cells: SF-900 insect cells co-infected with Flag-Cdk7 and Bab-Cyclin H baculoviruses
# Excerpt: Cyclin Dependent Kinase Activating Kinase (CAK) is a complex of proteins that phosphorylates a well-conserved threonine (Thr) residue in all mammalian cyclin dependent kinases (cdks). The CAK complex can also phosphorylate several components of the transcriptional machinery, such as the C-terminal domain (CTD) of RNA polymerase II in the TFIIH transcription complex. The CAK complex localizes to the nucleus, and is composed of three proteins: Cdk7, Cyclin H, and MAT-1. The exemplified method teaches the cloning and expression CAK subunits, particularly a human Cdk7 and a human Cyclin H. The method of the present invention exemplified herein is equally applicable to the cloning and expression of any CAK subunit, such as variants, structural or functional polymorphisms of the human Cdk7 or the human Cyclin H, or their orthologs in other animals such as rat, mouse, pig, dog and monkey.
# The CAK complex was purified from co-infected SF-900 insect cells at 48 hours post infection by batch immunoaffinity purification. The infected cells were pelleted by centrifugation and lysed in 1/10 of the culture volume in a solution containing 50 mM Hepes pH 7.5, 10 mM MgCl2, 1 mM DTT, 10 mM Beta-Glycerol phosphate, 20 uM Na-oVO4, 0.2 mM PMSF and 1 μg/mL each of leupeptin, aprotinin, and pepstatin on ice. Cells were mechanically lysed by trituration through a 22-gauge needle followed by sonication or alternately by nitrogen cavitation. The lysed cells were centrifuged at 50,000×G for 1 hour at 4° C. to remove debris and the supernatant was applied to 1/10 volume of prewashed Flag-M2 immunoaffinity resin (Sigma). The CAK complex, by nature of the Flag tagged Cdk7 protein, was allowed to bind to the Flag antibody of the resin overnight at 4° C. with gentle rocking. The resin was washed 4 times with 5 resin volumes of lysis buffer and the bound proteins were eluted by competition with 0.5 mg/mL Flag peptide ([…], American Peptide Co, Inc., SEQ ID NO: 16) in a total of 2 resin volumes. To remove the Flag peptide, the eluted material was applied to PD-10 gel filtration columns (Pharmacia) under conditions recommended by the manufacturer.
# Measurement of CAK kinase activity was accomplished using an antibody methodology in which a Europium labeled antibody binds preferentially to serine phosphorylated GST-CTD substrate. The long-lived europium label fluorescence allows a greater signal-to-noise ratio due to the delay in reading the emission wavelength, thereby eliminating signals from immediate fluorescence and fluorescent pharmaceutical screening compounds.
# The time-resolved-fluorescence assay for the CAK kinase activity is performed as follows. In a well of a black glutathione coated 96 well micro titer plate (Pierce Chemical, No. 15360), the following reagents were added: 1) 25 ul substrate solution containing 500 ng purified GST-CTD in a buffer having 50 mM Hepes pH 7.5, 10 mM MgCl2, 1 mM DTT, 0.2 mM PMSF, 40 uM Na-oVO4, and 22 uM ATP (as a background control, the buffer, including ATP but not substrate was added); 2) 2.5 ul of screening compounds in a diluent containing 30% DMSO/25 mM Hepes pH7.5 (As a control, the diluent only was added. Typically the final concentration of compound is 1 uM); and 3) 250 ng CAK enzyme complex in enzyme buffer containing 25 ul of 50 mM Hepes pH 7.5, 10 mM MgCl2, 1 mM DTT, 0.2 mM PMSF, and 40 uM Na-oVO4. The micro titer plate was shaken for 2 minutes on a titer plate shaker and allowed to incubate at 30° C. for 20 minutes.
# Subsequently, Kinase Stop Solution (75 mM EDTA, 0.2 mM PMSF, 1 mM DTT, 120 uM Na oVO4 in PBS) was added (50 ul/well). The plate was shaken for 2 minutes and incubated overnight at room temperature to allow substrate binding to the wells. The plate contents were flicked out, and the wells of the plate were washed 4 times with 350 ul of wash buffer (Delphia wash buffer, Perkin-Elmer, Inc.). The plate was tapped dry. […]
# T2 sequence (P50613 with tags, fused parts or gaps): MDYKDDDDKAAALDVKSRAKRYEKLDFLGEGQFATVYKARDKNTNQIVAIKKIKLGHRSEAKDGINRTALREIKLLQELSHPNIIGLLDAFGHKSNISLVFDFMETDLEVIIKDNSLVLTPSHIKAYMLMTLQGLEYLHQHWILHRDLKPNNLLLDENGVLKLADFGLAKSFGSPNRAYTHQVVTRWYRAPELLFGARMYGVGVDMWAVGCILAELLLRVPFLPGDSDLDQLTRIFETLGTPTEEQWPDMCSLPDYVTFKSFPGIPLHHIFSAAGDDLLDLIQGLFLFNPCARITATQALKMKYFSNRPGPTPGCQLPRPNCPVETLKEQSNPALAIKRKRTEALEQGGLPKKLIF
# T2 sequence (as listed by the source partner): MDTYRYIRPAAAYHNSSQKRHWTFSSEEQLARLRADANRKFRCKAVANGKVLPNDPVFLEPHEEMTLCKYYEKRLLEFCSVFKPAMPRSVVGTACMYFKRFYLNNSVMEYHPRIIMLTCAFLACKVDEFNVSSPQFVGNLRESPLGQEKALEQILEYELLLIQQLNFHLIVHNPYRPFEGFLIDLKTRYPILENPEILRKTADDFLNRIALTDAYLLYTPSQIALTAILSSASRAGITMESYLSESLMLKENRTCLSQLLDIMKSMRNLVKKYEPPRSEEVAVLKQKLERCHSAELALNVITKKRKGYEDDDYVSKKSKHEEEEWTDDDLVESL
# T1 sequence (Q05397 whole entry): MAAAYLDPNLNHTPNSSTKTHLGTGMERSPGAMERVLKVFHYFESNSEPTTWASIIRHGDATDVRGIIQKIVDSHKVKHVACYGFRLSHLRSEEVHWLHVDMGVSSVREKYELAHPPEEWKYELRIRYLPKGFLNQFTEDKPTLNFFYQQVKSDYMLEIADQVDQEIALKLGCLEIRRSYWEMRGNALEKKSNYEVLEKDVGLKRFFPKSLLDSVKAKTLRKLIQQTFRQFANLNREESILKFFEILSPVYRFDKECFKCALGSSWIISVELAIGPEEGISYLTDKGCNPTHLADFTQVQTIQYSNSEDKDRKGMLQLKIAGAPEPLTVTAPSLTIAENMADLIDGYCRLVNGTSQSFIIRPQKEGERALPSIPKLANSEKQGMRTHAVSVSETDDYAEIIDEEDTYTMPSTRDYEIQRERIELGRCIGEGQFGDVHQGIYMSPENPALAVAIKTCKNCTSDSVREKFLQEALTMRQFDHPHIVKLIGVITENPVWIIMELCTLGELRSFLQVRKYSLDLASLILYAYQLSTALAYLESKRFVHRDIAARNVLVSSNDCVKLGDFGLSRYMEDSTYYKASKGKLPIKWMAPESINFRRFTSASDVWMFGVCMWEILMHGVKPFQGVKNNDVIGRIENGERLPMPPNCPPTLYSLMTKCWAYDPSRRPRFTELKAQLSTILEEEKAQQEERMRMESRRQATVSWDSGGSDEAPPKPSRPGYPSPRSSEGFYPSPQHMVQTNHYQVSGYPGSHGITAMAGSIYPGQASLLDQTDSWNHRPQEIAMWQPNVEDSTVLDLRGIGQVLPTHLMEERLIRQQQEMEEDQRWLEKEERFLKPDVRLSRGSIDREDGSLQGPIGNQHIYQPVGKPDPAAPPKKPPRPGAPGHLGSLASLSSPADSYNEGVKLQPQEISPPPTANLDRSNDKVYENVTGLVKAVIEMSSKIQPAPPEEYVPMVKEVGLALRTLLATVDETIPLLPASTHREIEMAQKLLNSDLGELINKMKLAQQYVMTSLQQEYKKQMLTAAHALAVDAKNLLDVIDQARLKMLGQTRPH
inhibition at 10 µM [1] [%],inhibition at 20 µM [2] [%],SMILES
-1.2,2.3,"Cc1nccc(-c2cccc(-n3nnc4cnc(Nc5ccc(-c6csnn6)cc5)nc43)c2)n1 [Compound 36, {3-[3-(2-Methyl-pyrimidin-4-yl)-phenyl]-3H-[1,2,3]triazolo[4,5-d]pyrimidin-5-yl}-(4-[1,2,3]thiadiazol-4-yl-phenyl)-amine]"
-7,-1.1,"CNC(=O)c1cccc(Nc2ncc3nnn(-c4cccc(-c5ccnc(C)n5)c4)c3n2)c1 [Compound 37, N-Methyl-3-{3-[3-(2-methyl-pyrimidin-4-yl)-phenyl]-3H-[1,2,3]triazolo[4,5-d]pyrimidin-5-ylamino}-benzamide]"
3.4,27.2,"c1ccc(-c2cccc(Nc3ncc4nnn(-c5ccc(-c6csnn6)cc5)c4n3)c2)cc1 [Compound 38, Biphenyl-3-yl-[3-(4-[1,2,3]thiadiazol-4-yl-phenyl)-3H-[1,2,3]triazolo[4,5-d]pyrimidin-5-yl]-amine]"
3.2,-1.5,"CNC(=O)c1cccc(Nc2ncc3nnn(-c4ccc(-c5csnn5)cc4)c3n2)c1 [Compound 39, N-Methyl-3-[3-(4-[1,2,3]thiadiazol-4-yl-phenyl)-3H-[1,2,3]triazolo[4,5-d]pyrimidin-5-ylamino]-benzamide]"
6.99,-2.21,"CNC(=O)c1cccc(-n2nnc3cnc(Nc4cccc(-c5ccnc(C)n5)c4)nc32)c1 [Compound 40, N-Methyl-3-{5-[3-(2-methyl-pyrimidin-4-yl)-phenylamino]-[1,2,3]triazolo[4,5-d]pyrimidin-3-yl}-benzamide]"
-3.2,5.6,"CNC(=O)c1cccc(-n2nnc3cnc(Nc4cccc(-c5ccccc5)c4)nc32)c1 [Compound 41, 3-[5-(Biphenyl-3-ylamino)-[1,2,3]triazolo[4,5-d]pyrimidin-3-yl]-N-methyl-benzamide]"
35.6,3.4,"COc1cc(Nc2ncc3nnn(-c4cc(OC)c(OC)c(OC)c4)c3n2)cc(OC)c1OC [Compound 42, (3,4,5-Trimethoxy-phenyl)-[3-(3,4,5-trimethoxy-phenyl)-3H-[1,2,3]triazolo[4,5-d]pyrimidin-5-yl]-amine]"
33.3,11.8,COc1cc(-n2nnc3cnc(Nc4ccc5[nH]ncc5c4)nc32)cc(OC)c1OC [Compound 43]
24.7,10.2,"COc1cc(-n2nnc3cnc(Nc4cccc(S(N)(=O)=O)c4)nc32)cc(OC)c1OC [Compound 44, 3-[3-(3,4,5-Trimethoxy-phenyl)-3H-[1,2,3]triazolo[4,5-d]pyrimidin-5-ylamino]-benzene-sulfonamide]"
21.8,16.2,"NS(=O)(=O)c1ccccc1-n1nnc2cnc(Nc3ccc4[nH]ncc4c3)nc21 [Compound 45, 2-[5-(1H-Indazol-5-ylamino)-[1,2,3]triazolo[4,5-d]pyrimidin-3-yl]-benzene-sulfonamide]"
29.2,44.9,NS(=O)(=O)c1ccccc1Nc1ncc2nnn(-c3ccccc3S(N)(=O)=O)c2n1 [Compound 46]
63.6,51.3,NS(=O)(=O)c1cccc(Nc2ncc3nnn(-c4cccc(S(N)(=O)=O)c4)c3n2)c1 [Compound 47]
7.44,-37.4,CCCCNS(=O)(=O)c1cccc(Nc2ncc3nnn(-c4cccc(S(=O)(=O)NCCCC)c4)c3n2)c1 [Compound 48]
99.5,44.6,CCCCNS(=O)(=O)c1cccc(-n2nnc3cnc(Nc4ccc(C(=O)NCCN(CC)CC)cc4)nc32)c1 [Compound 49]
48.4,31.7,"CCCCNS(=O)(=O)c1cccc(-n2nnc3cnc(Nc4ccc(N5CCN(Cc6ccccc6)CC5)cc4)nc32)c1 [Compound 50, 3-{5-[4-(4-Benzyl-piperazin-1-yl)-phenylamino]-[1,2,3]triazolo[4,5-d]pyrimidin-3-yl]-N-butyl-benzene-sulfonamide]"
47.9,-19.1,CCN(CC)CCNC(=O)c1ccc(Nc2ncc3nnn(-c4ccc(C(=O)NCCN(CC)CC)cc4)c3n2)cc1 [Compound 52]
60.5,43.7,"CCN(CC)CCNC(=O)c1ccc(-n2nnc3cnc(Nc4ccc(N5CCN(Cc6ccccc6)CC5)cc4)nc32)cc1 [Compound 53, 4-{5-[4-(4-Benzyl-piperazin-1-yl)-phenylamino]-[1,2,3]triazolo[4,5-d]pyrimidin-3-yl}-N-(2-diethylamino-ethyl)-benzamide]"
15.2,20.5,"CCCCNS(=O)(=O)c1cccc(Nc2ncc3nnn(-c4ccc(N5CCN(Cc6ccccc6)CC5)cc4)c3n2)c1 [Compound 54, 3-{3-[4-(4-Benzyl-piperazin-1-yl)-phenyl]-3H-[1,2,3]triazolo[4,5-d]pyrimidin-5-ylamino}-N-butyl-benzene-sulfonamide]"
10.8,-6.2,"CN(C1CCCCC1)S(=O)(=O)c1ccccc1Nc1ncc2nnn(-c3ccc(N4CCN(Cc5ccccc5)CC4)cc3)c2n1 [Compound 55, 2-{3-[4-(4-Benzyl-piperazin-1-yl)-phenyl]-3H-[1,2,3]triazolo[4,5-d]pyrimidin-5-ylamino}-N-cyclohexyl-N-methyl-benzene-sulfonamide]"
